Source: US12091411B2, “IRAK degraders and uses thereof” (Kymera Therapeutics, Inc., priority 2022, dated 2024)
Like-named read-outs stand apart in the source and are kept apart here.

Target: T1, IRAK4 (Homo sapiens, UniProt Q9NWZ3)
T1 construct: Degradation of IRAK4 in OCI-LY10 was quantitatively measured using Meso Scale Discovery technology; endogenous in cells; host or cells: OCI-LY10
T1 sequence (Q9NWZ3 1-460): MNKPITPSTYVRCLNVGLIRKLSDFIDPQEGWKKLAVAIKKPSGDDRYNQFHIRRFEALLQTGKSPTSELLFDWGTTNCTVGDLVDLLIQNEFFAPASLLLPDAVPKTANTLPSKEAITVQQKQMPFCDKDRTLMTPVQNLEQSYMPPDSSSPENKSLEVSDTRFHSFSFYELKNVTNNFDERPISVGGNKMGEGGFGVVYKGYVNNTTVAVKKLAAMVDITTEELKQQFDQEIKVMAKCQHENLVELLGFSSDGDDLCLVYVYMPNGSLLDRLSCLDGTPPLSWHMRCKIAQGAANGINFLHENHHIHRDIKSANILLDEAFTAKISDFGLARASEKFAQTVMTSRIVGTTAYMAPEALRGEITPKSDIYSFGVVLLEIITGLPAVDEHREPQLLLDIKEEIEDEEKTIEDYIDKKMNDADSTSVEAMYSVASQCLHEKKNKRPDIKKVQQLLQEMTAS
Assay: IRAK4 MSD Degradation in OCI-LY10
Type: cell-based
Conditions: OCI-LY10 cells, MSD
Experimental: Degradation of IRAK4 in OCI-LY10 was quantitatively measured using Meso Scale Discovery technology. […] Compounds were then added to the assay plates with a final top concentration of 1 to 10 μM in a 1:3 dilution series with total of 8 doses. The assay plates were then incubated for 4 to 24 hours at 37° C. under 5% CO2. […] To prepare MSD assay plates (Meso Scale Discovery Catalog number L15XA-3), the plates were coated with 2 μg/mL capture antibody (mouse Anti-IRAK4 antibody [2H9], ab119942) in PBS, at 40 μL/well. […] Cell lysates were then added to MSD assay plates and the plates were incubated at room temperature for 1 hour. The plates were then washed 3 times with 150 μL/well TBST buffer and 25 μL/well primary detection antibody (rabbit Anti-IRAK4 antibody [Y279], from Abcam. Catalog number ab32511, 1 μg/mL). The assay plates were then incubated at room temperature for 1 hour, washed 3 times with 150 μL/well TBST buffer and 25 μL/well secondary detection antibody, SULFO-TAG anti-rabbit antibody were added (anti-rabbit antibody from Meso Scale Discovery, Catalog number R32AB-1, 1 μg/mL). The assay plates were then incubated at room temperature for 1 hour, washed 3 times with 150 μL/well TBST buffer, and 150 μL/well MSD reading buffer (Meso Scale Discovery catalog number R92TC-2) was added. The plates were then analyzed by a MSD reader (Meso Scale Discovery, Model Quick Plex SQ 120). The data was then analyzed by software Prism 7.0 from GraphPad and the dose-depended IRAK4 degradation were fit using a three-parameter logistic equation to calculate DC50.
The letter codes for IRAK4 DC50 include: A (<0.01 μM); B (0.01 to <0.1 μM); C (0.1 to 0.2 μM); and D (>0.2 μM or not tested).

[1] = 4 hrs incubation, read-out: IRAK4 degradation in OCI-LY10 at 4 hrs: DC50
[2] = 24 hrs incubation, read-out: IRAK4 degradation in OCI-LY10 at 24 hrs: DC50

SMILES | DC50 [1] [nM] | DC50 [2] [nM]
Cn1c(=O)n(C2CCC(=O)NC2=O)c2cccc(C#CCN3C[C@@H]4C[C@H]3CN4C[C@H]3CC[C@H](n4cc(NC(=O)c5cnn6ccc(N7C[C@H]8C[C@@H]7CO8)nc56)c(C(F)F)n4)CC3)c21 (stereo partly drawn) [I-50] | 10 to 100 | > 200
COc1ccc2c(c1C#CCO[C@H]1CCN(C[C@H]3CC[C@H](n4cc(NC(=O)c5cnn6ccc(N7C[C@H]8C[C@@H]7CO8)nc56)c(C(F)F)n4)CC3)C[C@H]1F)n(C)c(=O)n2C1CCC(=O)NC1=O (stereo partly drawn) [I-51] | 10 to 100 | > 200
O=C1CCN(c2cncc3c(C#CCO[C@@H]4CCN(C[C@H]5C[C@H](n6cc(NC(=O)c7cnn8ccc(N9C[C@H]%10C[C@@H]9CO%10)nc78)c(C(F)F)n6)C5)C[C@@H]4F)cccc23)C(=O)N1 [I-52] | < 10 | > 200
C[C@H]1CN(C[C@H]2C[C@H](n3cc(NC(=O)c4cnn5ccc(N6C[C@H]7C[C@@H]6CO7)nc45)c(C(F)F)n3)C2)CC[C@@H]1OCC#Cc1cccc2c(N3CCC(=O)NC3=O)cncc12 [I-53] | < 10 | > 200
COc1ccc2c(c1C#CCO[C@@H]1CCN(C[C@H]3C[C@H](n4cc(NC(=O)c5cnn6ccc(N7C[C@H]8C[C@@H]7CO8)nc56)c(C(F)F)n4)C3)C[C@@H]1F)n(C)c(=O)n2C1CCC(=O)NC1=O (stereo partly drawn) [I-54] | < 10 | > 200
C[C@@H]1CN(C[C@H]2CC[C@H](n3cc(NC(=O)c4cnn5ccc(N6C[C@H]7C[C@@H]6CO7)nc45)c(C(F)F)n3)CC2)CC[C@H]1OCC#Cc1cccc2c(N3CCC(=O)NC3=O)cncc12 [I-55] | 10 to 100 | > 200
C[C@H]1CN(C[C@H]2CC[C@H](n3cc(NC(=O)c4cnn5ccc(N6C[C@H]7C[C@@H]6CO7)nc45)c(C(F)F)n3)CC2)CC[C@@H]1OCC#Cc1cccc2c(N3CCC(=O)NC3=O)cncc12 [I-56] | < 10 | > 200
C[C@H]1CN(C[C@H]2CC[C@H](n3cc(NC(=O)c4cnn5ccc(N6C[C@H]7C[C@@H]6CO7)nc45)c(C(F)F)n3)CC2)CC[C@@H]1OCC#Cc1ccc2c(N3CCC(=O)NC3=O)cncc2c1 [I-57] | 10 to 100 | > 200
COc1ccc2c(c1C#CCO[C@H]1CCN(C[C@H]3CC[C@H](n4cc(NC(=O)c5cnn6ccc(N7C[C@H]8C[C@@H]7CO8)nc56)c(C(F)F)n4)CC3)C[C@@H]1C)n(C)c(=O)n2C1CCC(=O)NC1=O (stereo partly drawn) [I-58] | < 10 | > 200
CCn1c(=O)n(C2CCC(=O)NC2=O)c2cccc(C#CCO[C@H]3CCN(C[C@H]4CC[C@H](n5cc(NC(=O)c6cnn7ccc(N8C[C@H]9C[C@@H]8CO9)nc67)c(C(F)F)n5)CC4)C[C@@H]3C)c21 (stereo partly drawn) [I-59] | < 10 | > 200
CCn1c(=O)n(C2CCC(=O)NC2=O)c2cccc(C#CCN3CCN(C[C@H]4CC[C@H](n5cc(NC(=O)c6cnn7ccc(N8C[C@H]9C[C@@H]8CO9)nc67)c(C(F)F)n5)CC4)CC3)c21 (stereo partly drawn) [I-60] | < 10 | > 200
Cn1c(=O)n(C2CCC(=O)NC2=O)c2cccc(N3CCN(C4CCN(C[C@H]5CC[C@H](n6cc(NC(=O)c7cnn8ccc(N9C[C@H]%10C[C@@H]9CO%10)nc78)c(C(F)F)n6)CC5)CC4)CC3)c21 (stereo partly drawn) [I-62] | < 10 | > 200
C[C@H]1CN(C[C@H]2CC[C@H](n3cc(NC(=O)c4cnn5ccc(N6C[C@H]7C[C@@H]6CO7)nc45)c(C(F)F)n3)CC2)CC[C@@H]1OCC#Cc1cccc2c1n(C1CC1)c(=O)n2C1CCC(=O)NC1=O (stereo partly drawn) [I-63] | < 10 | > 200
COc1ccc2c(c1C#CCO[C@@H]1CCN(C[C@H]3CC[C@H](n4cc(NC(=O)c5cnn6ccc(N7C[C@H]8C[C@@H]7CO8)nc56)c(C(F)F)n4)CC3)C[C@H]1C)n(C)c(=O)n2C1CCC(=O)NC1=O (stereo partly drawn) [I-64] | < 10 | > 200
O=C1CCC(n2c(=O)n(C3CC3)c3c(C#CCOC4CCN(C[C@H]5CC[C@H](n6cc(NC(=O)c7cnn8ccc(N9C[C@H]%10C[C@@H]9CO%10)nc78)c(C(F)F)n6)CC5)CC4)cccc32)C(=O)N1 (stereo partly drawn) [I-65] | < 10 | > 200
